Values joined by “and” are separate entries in the source; they are usually repeats but may differ in a detail not shown here. Equal values may be shown once.
Experiments:
[1] = target: T1, dΔS270A CuGE (inactive truncated deglycosylated variant) (Cerrena unicolor, UniProt A0A0A7EQR3, S286A); assay: Microscale thermophoresis (MST, LabelFree) binding of soluble ligands to dΔS270A
T1 construct: truncated CuGE (residues G79-T458) corresponding to the catalytic domain only; His6 (C); TEV protease cleavage site (C); made in house; host or cells: Pichia pastoris X-33
Protocol: (§1) Binding affinities for the soluble ligands U^m4XX^-OH (O-UXXR, MEGAZYMES), MeGlcA (4-O-methyl-D-glucuronic acid, MM46686, Carbosynth, Crompton UK), and MeMeGlcA (4-O-methyl-D-glucopyranosyluronate, purchased from Institute of Chemistry, Slovak Academy of Sciences, Bratislava, Slovakia) were measured by MST. The protein stocks, dΔS207A and ΔWT, were adjusted to 200 nM with 100 mM sodium acetate buffer pH 5 supplemented with 0.1% Pluronic F-127. Ligand stocks (100 mM U^m4XX^-OH, 43 mM MeGlcA and 250 mM MeMeGlcA) were prepared in 100 mM sodium acetate buffer pH 5, and for each ligand a series of 16 1:1 dilutions was prepared using the same buffer. For the measurement, each ligand dilution was mixed with one volume of protein, which led to a final protein concentration of 100 nM and final ligand concentrations in the mM to nM range. After 10 min incubation followed by centrifugation at 10,000 × g for 10 min, the samples were loaded into Monolith NT.LabelFree zero-background capillaries (NanoTemper Technologies). The MST experiment was performed with a Monolith NT.LabelFree instrument (NanoTemper Technologies) at 25 °C using 30% LED power and medium MST power. […] Final ligand concentration ranges used in the analysis of the MST signal were: U^m4XX^-OH 25 mM to 1.53 μM, MeGlcA 10.8 mM to 656 nM and MeMeGlcA 15.6 mM to 3.81 μM. For each ligand-binding curve, data from at least three independently pipetted measurements were included in the analysis with the MO. Affinity Analysis software (version 2.3, NanoTemper Technologies) using the signal from an MST-on time of 5 s.

[2] = test system: CuGE catalytic domain crystals; assay: Crystal soaking with ligands; type: binding, Cerrena unicolor; settings: concentrations up to 0.5 M
Protocol: The deglycosylated CuGE variants dWT and dΔS207A were both screened for crystallization. However, all crystals obtained contain the catalytic domain only, as crystals formed in experiments with the full-length enzyme (dWT) turned out to be a proteolytic fragment lacking the CBM1 and linker region (Δ*dWT). […] Crystallization and ligand soak conditions are summarized in Supplementary Table 1. The vast majority of crystals formed at 4 °C and with high molecular weight polymers (SOKALAN CP7, PEG 10,000 or PEG 8000) as precipitants. Crystals were cryoprotected by brief soaks in either reservoir or ligand stock solutions supplemented with 26% glycerol and flash-frozen in liquid nitrogen. […] A refinement protocol using the maximum-likelihood target, real-space refinement, refinement of coordinates, individual isotropic temperature factors and translation-liberation-screw (TLS) refinement using TLS groups determined by the PHENIX software was applied. […]

[3] = target: T2, ΔWT CuGE (truncated, catalytic domain only) (Cerrena unicolor, UniProt A0A0A7EQR3); assay: Microscale thermophoresis (MST, LabelFree) binding of soluble ligands to ΔWT; settings: for Fnorm Average: MST
T2 construct: truncated CuGE (residues G79-T458) corresponding to the catalytic domain only; His6 (C); TEV protease cleavage site (C); made in house; host or cells: Pichia pastoris X-33
Protocol: as §1

[4] = Stability measurements: apparent thermal unfolding temperature (Ti) from intrinsic fluorescence, Tycho NT.6; type: physicochemical, Cerrena unicolor; settings: 20 mM sodium acetate buffer pH 5
Protocol: In order to evaluate the stability of the different CuGE variants apparent unfolding temperatures (Ti) were monitored based on changes in intrinsic fluorescence using a Tycho NT.6 instrument (NanoTemper Technologies). The measurements were made in 20 mM sodium acetate buffer pH 5, protein concentrations in the range 0.07–0.3 mg mL^−1.

In the case of CO[C@@H]([C@H](O)[C@@H](O)C=O)[C@H](O)C(=O)O [MeGlcA, 4-O-methyl-D-glucuronic acid], the “dissociation constant, times higher compared to dΔS270A:U^m4XX^-OH” value ([1]; MST) is reported as ~ 10 times, the “Fnorm Average” value ([1]; MST, ligand Conc 6.56128e-7 M) is reported as 892.97 and the “Fnorm Average” value ([1]; MST, ligand Conc 1.31226e-6 M) is reported as 893.37. For the same molecule, the “Fnorm Average” value ([1]; MST, ligand Conc 2.62451e-6 M) was 892.22, the “Fnorm Average” value ([1]; MST, ligand Conc 5.24902e-6 M) was 893.19 and the “Fnorm Average” value ([1]; MST, ligand Conc 1.0498e-5 M) was 892.96. The “Fnorm Average” value ([1]; MST, ligand Conc 2.09961e-5 M) was 892.61, the “Fnorm Average” value ([1]; MST, ligand Conc 4.19922e-5 M) was 895.02 and the “Fnorm Average” value ([1]; MST, ligand Conc 8.39844e-5 M) was 893.94. For the same molecule, the “Fnorm Average” value ([1]; MST, ligand Conc 0.000167969 M) was 894.55, the “Fnorm Average” value ([1]; MST, ligand Conc 0.000335937 M) was 893.65 and the “Fnorm Average” value ([1]; MST, ligand Conc 0.000671875 M) was 895.68. For the same molecule, the “Fnorm Average” value ([1]; MST, ligand Conc 0.00134375 M) was 895.81, the “Fnorm Average” value ([1]; MST, ligand Conc 0.0026875 M) was 897.59 and the “Fnorm Average” value ([1]; MST, ligand Conc 0.005375 M) was 898.85. For the same molecule, the “Fnorm Average” value ([1]; MST, ligand Conc 0.01075 M) was 901.30.

For COC(=O)[C@H]1OC(O)[C@H](O)[C@@H](O)[C@@H]1OC (stereo partly drawn) [MeMeGlcA, methyl ester of 4-O-methyl-D-glucuronic acid], the Kd [1] was over 10 mM, the “Fnorm Average” value ([1]; MST, ligand Conc 3.8147e-6 M) was 893.87 and the “Fnorm Average” value ([1]; MST, ligand Conc 7.62939e-6 M) was 892.81. For the same molecule, the “Fnorm Average” value ([1]; MST, ligand Conc 1.52588e-5 M) was 893.60, the “Fnorm Average” value ([1]; MST, ligand Conc 3.05176e-5 M) was 893.00 and the “Fnorm Average” value ([1]; MST, ligand Conc 6.10352e-5 M) was 891.24. The “Fnorm Average” value ([1]; MST, ligand Conc 0.00012207 M) was 892.80, the “Fnorm Average” value ([1]; MST, ligand Conc 0.000244141 M) was 892.27 and the “Fnorm Average” value ([1]; MST, ligand Conc 0.000488281 M) was 892.23. For the same molecule, the “Fnorm Average” value ([1]; MST, ligand Conc 0.000976562 M) was 892.05, the “Fnorm Average” value ([1]; MST, ligand Conc 0.00195312 M) was 893.14 and the “Fnorm Average” value ([1]; MST, ligand Conc 0.00390625 M) was 894.69. For the same molecule, the “Fnorm Average” value ([1]; MST, ligand Conc 0.0078125 M) was 894.83, the “Fnorm Average” value ([1]; MST, ligand Conc 0.015625 M) was 899.63 and the “complex formation on crystal soak” value [2] was “did not result in a complex”.

With CO[C@H]1[C@H](O)[C@@H](O)[C@@H](O[C@H]2[C@H](O[C@@H]3CO[C@@H](O[C@H](CO)[C@H](O)[C@@H](O)CO)[C@H](O)[C@H]3O)OC[C@@H](O)[C@@H]2O)O[C@@H]1C(=O)O [U^m4XX^-OH, aldotetrauronic acid] the “Fnorm Average” value ([1]; MST, ligand Conc 1.52588e-6 M) was 893.61, the “Fnorm Average” value ([1]; MST, ligand Conc 3.05176e-6 M) was 893.69 and the “Fnorm Average” value ([1]; MST, ligand Conc 6.10352e-6 M) was 893.20. For the same molecule, the “Fnorm Average” value ([1]; MST, ligand Conc 1.2207e-5 M) was 894.05, the “Fnorm Average” value ([1]; MST, ligand Conc 2.44141e-5 M) was 893.89 and the “Fnorm Average” value ([1]; MST, ligand Conc 4.88281e-5 M) was 895.55. For the same molecule, the “Fnorm Average” value ([1]; MST, ligand Conc 9.76563e-5 M) was 898.89, the “Fnorm Average” value ([1]; MST, ligand Conc 0.000195313 M) was 901.02 and the “Fnorm Average” value ([1]; MST, ligand Conc 0.000390625 M) was 904.70. The “Fnorm Average” value ([1]; MST, ligand Conc 0.00078125 M) was 908.26, the “Fnorm Average” value ([1]; MST, ligand Conc 0.0015625 M) was 908.91 and the “Fnorm Average” value ([1]; MST, ligand Conc 0.003125 M) was 910.47. The “Fnorm Average” value ([1]; MST, ligand Conc 0.00625 M) was 911.05, the “Fnorm Average” value ([1]; MST, ligand Conc 0.0125 M) was 912.09 and the “Fnorm Average” value ([1]; MST, ligand Conc 0.025 M) was 909.72. The Kd [3] was 5 mM, the “Fnorm Average” value ([3]; ligand Conc 1.52588e-6 M) was 893.29 and the “Fnorm Average” value ([3]; ligand Conc 3.05176e-6 M) was 893.55. The “Fnorm Average” value ([3]; ligand Conc 6.10352e-6 M) was 893.63, the “Fnorm Average” value ([3]; ligand Conc 1.2207e-5 M) was 892.18 and the “Fnorm Average” value ([3]; ligand Conc 2.44141e-5 M) was 892.73. For the same molecule, the “Fnorm Average” value ([3]; ligand Conc 4.88281e-5 M) was 894.37, the “Fnorm Average” value ([3]; ligand Conc 9.76563e-5 M) was 893.73 and the “Fnorm Average” value ([3]; ligand Conc 0.000195313 M) was 893.94. The “Fnorm Average” value ([3]; ligand Conc 0.000390625 M) was 894.62, the “Fnorm Average” value ([3]; ligand Conc 0.00078125 M) was 893.24 and the “Fnorm Average” value ([3]; ligand Conc 0.0015625 M) was 896.88. For the same molecule, the “Fnorm Average” value ([3]; ligand Conc 0.003125 M) was 900.40, the “Fnorm Average” value ([3]; ligand Conc 0.00625 M) was 905.36 and the “Fnorm Average” value ([3]; ligand Conc 0.0125 M) was 907.85. For the same molecule, the “Fnorm Average” value ([3]; ligand Conc 0.025 M) was 907.66.

B1: dWT: enzymatically deglycosylated full-length WT CuGE (protein)
chain: QASAPQWGQCGGIGWTGPTACPSGWACQQLNAYYSQCLQGAAPAPARTTAAPPPPPATTAAPPPPTTSAPTGSSPVAGACGAIASTVPNYNNAKLPDPFTFANGTALRTKADWSCRRAEISALIQNYEAGTLPPKPPVVTASFSKSGNTGTLAITAGLSNSQTIKFSPTISYPSGTPPANGWPLIIAYEGGSIPIPAGVATLTYSNSDMAQQNSASSRGQGLFYQLYGSTHSASAMTAWVWGVSRIIDALEMTPTAQINTQRIGVTGCSRDGKGALMAGAFEERIALTIPQESGSGGDACWRLSKYEIDNGNQVQDAVEIVGENVWFSTNFNNYVQKLPTVPEDHHLLAAMVAPRAMISFENTDYLWLSPMSSFGCMTAAHTVWQGLGIADSHGFAQVGGHAHCAWPSSLTPQLNAFINRFLLDQSATTNVFTTNNQFGKVQWNAANWITWTTPTLT
modifications: N-glycosylation at N104 trimmed with Endo H; O-glycosylation in the linker region trimmed with alpha-1-2,3,6 mannosidase; left off: c-myc epitope, C-terminal, state not stated | His6, C-terminal, stat
notes: enzymatically deglycosylated full-length WT CuGE
In the case of B1, the “Ti, single measurements” value ([4]; individual replicates) is reported as 75.9 °C and 75.7 °C and 75.8 °C and the “Ti, apparent thermal unfolding temperature (mean)” value ([4]; protein 0.07–0.3 mg mL^−1, intrinsic fluorescence) is reported as 75.8 °C.
